{"source": "patent US20030118985A1", "about": "“Mouse monoclonal antibody (5-21-3) to human immunodeficiency virus gp41 protein” (priority 1997, published 2003)", "key": {"[1]": {"tested_on": "monoclonal antibody 5-21-3", "test": "Immuno-dot blot of synthetic peptides with 5-21-3", "type": "binding, mouse", "conditions": "25 ug/ml 5-21-3; peptide spotted on nitrocellulose", "description": "(§1) The western Blot procedure described in Example 1 was employed for development of immuno-dot blots using synthetic peptides, except that synthetic peptides were fixed to nitrocellulose by direct application using Drummond lambda pipettes, and air dried prior to blocking with 20% fetal calf serum in PBS (pH 7.4)."}, "[2]": {"tested_on": "monoclonal antibody 10-15-63", "test": "Immuno-dot blot of synthetic peptides with 10-15-63", "type": "binding, mouse", "conditions": "25 ug/ml 10-15-63", "description": "as §1"}, "[3]": {"tested_on": "Rabbit (R) anti-P58-130 serum", "test": "Immuno-dot blot of synthetic peptides with rabbit anti-P58-130 serum", "type": "binding", "conditions": "2% serum", "description": "as §1"}, "[4]": {"tested_on": "mouse (M) anti-rp41 serum", "test": "Immuno-dot blot of synthetic peptides with mouse anti-rp41 serum", "type": "binding", "conditions": "2% serum", "description": "as §1"}, "[5]": {"tested_on": "monoclonal antibody 5-21-3", "test": "Immunoprecipitation of [125I] synthetic peptides by 5-21-3", "type": "binding, mouse", "conditions": "for SPECIFIC PRECIPITATION (CPM) by 5-21-3 / x-fold increase of specific over non-specific precipitation, 5-21-3: 5-21-3 10 μg/0.2 ml", "protocol": "(§2) Synthetic peptides were radiolabeled with ^125I (Amersham) by the chloramine T method (N. M. Hunter, “Radioimmunoassay” in D. M. Weir, Ed., Handbook of Experimental Immunology, [Blackwell Scientific Publications, 1973]). Generally, 2-6 ul of 100 mCi/ml ^125I were added to 10-50 ug of peptide in PBS, pH 7.4. Approximately 10 ug of freshly prepared (1 mg/ml in PBS) chloramine T were added to the mixture maintained at 4° C. After 5 min., [^125I]peptide was separated from free ^125I by passage of the reaction mixture through a 3 ml (bed volume) column of Biogel P-6 or P-2, as required. Fractions (200 ul each) containing [^125I]peptide were pooled and diluted into PBS containing 20% fetal calf serum. Rough estimations of ^125I cpm bound to peptide were made by acid precipitation. An aliquot of labeled peptide was diluted into 1 ml of ice cold 50% trichloroacetic acid (TCA) overlaying a 0.45 um filter (made of mixed cellulose esters) set on a scintered glass filter connected to a vacuum apparatus. Precipitated protein was fixed onto the filter by application of vacuum, and filters were washed with ice-cold 50% TCA. Background cpm adhering non-specifically to the filter were estimated by repeating the procedure using a non-precipitating buffer. Amounts of peptide, ^125I, chloramine T, and composition of column eluting buffer were subject to change depending on conditions required to maintain solubility of each peptide.\n(§3) Synthetic peptides radiolabeled with ^125I were diluted into PBS (pH 7.4) containing 0.1% Triton X-100 (or other detergents where indicated) and 1.0% BSA, to yield approximately 2.5-5×10^5 acid-precipitable cpm per 0.1 ml. Purified monoclonal IgG 5-21-3 and 10-15-63 were employed in the assay. Monoclonal antibodies were diluted into PBS containing 0.1% Triton X-100 (or other detergents where indicated), 1.0% BSA, and 2% normal mouse serum as a carrier immunoglobulin. Immune rabbit serum (anti-P58-130) was diluted appropriately into the same buffer except that normal rabbit serum (2%) was substituted for normal mouse serum as the carrier immunoglobulin. A reaction mixture comprising 0.1 ml [^125I] peptide (5×10^5 cpm/0.1 ml) and 0.1 ml diluted antibody was incubated 1 hr at 40° C., followed by addition of 0.1 ml of a precipitating antibody, either goat anti-mouse IgG, or goat anti-rabbit IgG, corresponding to the primary antibody. The reaction mixture was incubated 1 hr at 40° C. and then overnight at 4° C. […] Precipitation assays employing Protein A-Sepharose as the precipitating reagent were performed in a similar manner, except that normal sera were omitted from the reaction mixtures."}, "[6]": {"tested_on": "monoclonal antibody 10-15-63", "test": "Immunoprecipitation of [125I] synthetic peptides by 10-15-63", "type": "binding, mouse", "conditions": "for SPECIFIC PRECIPITATION (CPM) by 10-15-63 / x-fold increase of specific over non-specific precipitation, 10-15-63: 10-15-63 10 μg/0.2 ml", "protocol": "as §2, §3"}, "[7]": {"tested_on": "Rabbit (R) anti-P58-130 serum", "test": "Immunoprecipitation of [125I] synthetic peptides by rabbit anti-P58-130 serum", "type": "binding", "conditions": "for SPECIFIC PRECIPITATION (CPM) by RαP58-130 / x-fold increase of specific over non-specific precipitation, RαP58-130: rabbit anti-P58-130 serum 20 ul/0.2 ml", "protocol": "as §2, §3"}, "[8]": {"tested_on": "binding of antibody 5-21-3 to rp41", "test": "Binding inhibition assay: peptides inhibit binding of 5-21-3 to rp41", "design": "species or system HIV I", "protocol": "Additional evidence for the conformationl nature of the 5-21-3 epitope was obtained using binding inhibition studies, in which synthetic peptides were ranked for their ability to inhibit binding of 5-21-3 to rp41. First, the Fab dimer of an anti-gp41 monoclonal antibody was prepared by conventional methods (Goding et al., supra). Then 100 ul of a 1 mg/ml solution of the Fab dimer in bicarbonate buffer (pH 9.6) was coated onto Immulon II microtiter plates for 1 hr at 37° C. After washing with PBS containing 0.05% Tween 20, the plates were overcoated with 200 ul of 1.0% ovalbumin in bicarbonate buffer (pH 9.6) for 1 hr at 30° C. After washing, 100 ul of rp41 enriched E. coli lysate (as described in Example 3), diluted appropriately in PBS containing 0.05% Tween 20, were allowed to bind to the Fab dimer for 2 hr at 30° C. The plates were washed and stored at 4° C.\nIntact monoclonal antibody 5-21-3 IgG (purified from tissue culture fluid supporting growth of the cloned cell line 5-21-3) was titrated against the bound rp41 on the plate, and an antibody concentration was selected which yielded an A492 value of 2.0-3.0. Usually, 0.4 pmol (0.06 ug) of 5-21-3 IgG per microtiter well was employed in these assays. Stock solutions of 5-21-3 IgG were prepared in PBS containing 0.1% Triton X-100 and 0.1% SDS. Dilutions of synthetic peptides were made in the same buffer (SDS was included in these experiments to keep peptides soluble at high concentrations).\nThe binding inhibition assay was performed by combining 0.15 ml of 1.2 ug/ml 5-21-3 antibody stock solution with 0.15 ml of peptide at a selected peptide concentration, and incubating the reaction mixture 1 hr at room temp. Then 0.1 ml aliquots of each reaction mixture were added to each of two wells in the microtiter tray. After a 1 hr incubation at room temp., the plates were washed, and HRPO conjugated Goat anti-mouse IgG Fc was added for 1 hr at room temp. The plates were washed, and addition of OPD for color development identified the relative amounts of 5-21-3 bound to rp41 in the microtiter wells. The reaction was stopped by addition of 100 ul of 1N H2SO4, and the plates were read on a Dynatech II microtiter plate reader."}, "[9]": {"conditions": "PBS, 0.1% Triton X-100, 1.0% BSA, carrier serum, second antibody precipitation"}, "[10]": {"conditions": "second antibody precipitation, vs normal mouse IgG"}, "[11]": {"conditions": "detergent-rich buffer, Protein A-Sepharose"}}, "note": "Entries after “also recorded” stand apart in the source; their conditions may differ.", "data": [{"substance": "ARILAVERYLKDQQLLGIWGCSGKLICTTAVPWNASWSNKSLEQIWNNMTWMEWDREINNYSLIHSLIEESQNQQEKNELLELNK [P67-154]", "values": [{"measurement": "immuno-dot blot reactivity with 5-21-3", "setting": "[1]", "value": "very strong reaction"}, {"measurement": "immuno-dot blot reactivity with 10-15-63", "setting": "[2]", "value": "Little or no reactivity"}, {"measurement": "immuno-dot blot reactivity with rabbit anti-P58-130 serum", "setting": "[3]", "value": "Strong reactivities"}, {"measurement": "immuno-dot blot reactivity with mouse anti-rp41 serum", "setting": "[4]", "value": "Strong reactivities"}, {"measurement": "binding of [125I]peptide by 5-21-3 (immunoprecipitation), in words", "setting": "[5]", "value": "readily bound"}, {"measurement": "SPECIFIC PRECIPITATION (CPM)", "setting": "[5]; 5-21-3 1.0 μg/ml final", "value": "165,781 CPM"}, {"measurement": "x-fold increase of specific over non-specific precipitation", "setting": "[5]; 5-21-3 1.0 μg/ml final", "value": "(3.6) x-fold"}, {"measurement": "SPECIFIC PRECIPITATION (CPM) by 5-21-3", "setting": "[5]; [9]", "value": "479,207 CPM"}, {"measurement": "x-fold increase of specific over non-specific precipitation, 5-21-3", "setting": "[5]; [10]", "value": "(16) x-fold"}, {"measurement": "SPECIFIC PRECIPITATION (CPM)", "setting": "[5]; 5-21-3 10.0 μg/ml final", "value": "441,887 CPM"}, {"measurement": "x-fold increase of specific over non-specific precipitation", "setting": "[5]; 5-21-3 10.0 μg/ml final", "value": "(8.5 x-fold"}, {"measurement": "SPECIFIC PRECIPITATION (CPM)", "setting": "[5]; 5-21-3 100.0 μg/ml final", "value": "659,045 CPM"}, {"measurement": "x-fold increase of specific over non-specific precipitation", "setting": "[5]; 5-21-3 100.0 μg/ml final", "value": "(8.0) x-fold"}, {"measurement": "5-21-3 concentration required to demonstrate binding of the peptide", "setting": "[5]; immunoprecipitation, Table 5", "value": "≤ 1", "unit": "µg/mL"}, {"measurement": "SPECIFIC PRECIPITATION (CPM)", "setting": "[6]; 10-15-63 1.0 μg/ml final", "value": 0, "unit": "CPM"}, {"measurement": "x-fold increase of specific over non-specific precipitation", "setting": "[6]; 10-15-63 1.0 μg/ml final", "value": "(0) x-fold"}, {"measurement": "SPECIFIC PRECIPITATION (CPM) by 10-15-63", "setting": "[6]; [9]", "value": 9713, "unit": "CPM"}, {"measurement": "x-fold increase of specific over non-specific precipitation, 10-15-63", "setting": "[6]; [10]", "value": "(1.3) x-fold"}, {"measurement": "SPECIFIC PRECIPITATION (CPM)", "setting": "[6]; 10-15-63 10.0 μg/ml final", "value": 0, "unit": "CPM"}, {"measurement": "x-fold increase of specific over non-specific precipitation", "setting": "[6]; 10-15-63 10.0 μg/ml final", "value": "(0) x-fold"}, {"measurement": "SPECIFIC PRECIPITATION (CPM)", "setting": "[6]; 10-15-63 100.0 μg/ml final", "value": 0, "unit": "CPM"}, {"measurement": "x-fold increase of specific over non-specific precipitation", "setting": "[6]; 10-15-63 100.0 μg/ml final", "value": "(0) x-fold"}, {"measurement": "precipitation of [125I]peptide by rabbit anti-P58-130, in words", "setting": "[7]", "value": "strong precipitator"}, {"measurement": "SPECIFIC PRECIPITATION (CPM) by RαP58-130", "setting": "[7]; second antibody precipitation", "value": "479,343 CPM"}, {"measurement": "x-fold increase of specific over non-specific precipitation, RαP58-130", "setting": "[7]; second antibody precipitation, vs normal rabbit serum", "value": "(4.4) x-fold"}, {"measurement": "inhibition of 5-21-3 binding to rp41, in words", "setting": "[8]", "value": "potent inhibitor; also recorded: most potent inhibitor"}, {"measurement": "Molar Ratio at 50% inhibition of 5-21-3 binding", "setting": "[8]; mean of two experiments, 0.4 pmol 5-21-3 IgG per well", "value": "72.7 pmoles peptide/pmoles 5-21-3"}]}, {"substance": "H-TVWGIKELQARILAVERYLKDQQLLGIWGCSGKLICTTAVPWNASWSNKSLEQIWNNMTWMEWDREINNYTSL-OH [P58-130]", "values": [{"measurement": "immuno-dot blot reactivity with 5-21-3", "setting": "[1]", "value": "did not react"}, {"measurement": "immuno-dot blot reactivity with 10-15-63", "setting": "[2]", "value": "Little or no reactivity"}, {"measurement": "immuno-dot blot reactivity with rabbit anti-P58-130 serum", "setting": "[3]", "value": "Strong reactivities"}, {"measurement": "immuno-dot blot reactivity with mouse anti-rp41 serum", "setting": "[4]", "value": "Strong reactivities"}, {"measurement": "binding of [125I]peptide by 5-21-3 (immunoprecipitation), in words", "setting": "[5]", "value": "unable to bind"}, {"measurement": "SPECIFIC PRECIPITATION (CPM) by 5-21-3", "setting": "[5]; detergent-rich buffer (0.1% Triton X-100, 1.0% sodium deoxycholate, 0.1% SDS), Protein A-Sepharose", "value": 0, "unit": "CPM"}, {"measurement": "x-fold increase of specific over non-specific precipitation, 5-21-3", "setting": "[5]; [11]", "value": "(<1) x-fold"}, {"measurement": "SPECIFIC PRECIPITATION (CPM) by 10-15-63", "setting": "[6]; [11]", "value": 0, "unit": "CPM"}, {"measurement": "x-fold increase of specific over non-specific precipitation, 10-15-63", "setting": "[6]; [11]", "value": "(<1) x-fold"}, {"measurement": "precipitation of [125I]peptide by rabbit anti-P58-130, in words", "setting": "[7]", "value": "strong precipitator"}, {"measurement": "SPECIFIC PRECIPITATION (CPM) by RαP58-130", "setting": "[7]; [11]", "value": "286,722 CPM"}, {"measurement": "x-fold increase of specific over non-specific precipitation, RαP58-130", "setting": "[7]; [11]", "value": "(32) x-fold"}, {"measurement": "inhibition of 5-21-3 binding to rp41, in words", "setting": "[8]", "value": "no detectable inhibition"}]}]}
